This is an account of results in patent US5081123A, “Quinoxaline compound and their preparation and use” (Novo Nordisk A/S, priority 1988, dated 1992).

Converted amounts (≈) assume the structure as drawn.

For assay [1], the target named is quisqualate type receptors (3H-AMPA, rat cerebral cortical membrane homogenate). In words: 3H-AMPA binding (displacement from quisqualate type receptors). Particulars: 5 nM 3H-AMPA, 0° C., 30 min, pH 7.1. On the procedure: (§1) The pharmacological properties of the compounds of the present invention can be illustrated by determining their capability for displacing radioactively labelled 2-amino-3-hydroxy-5-methyl-4-isoxazolepropionic acid (AMPA) from the quisqualate type receptors.
The displacement activity of the compounds may be shown by determining the IC50 value which represents the concentration (μg/ml) which causes a displacement of 50% of the specific binding of ^3 H-AMPA.
500 μl of thawed rat cerebral cortical membrane homogenate in Tris-HCl (30 mM), CaCl2 (2.5 mM) and KSCN (100 mM) pH 7.1 were incubated at 0° C. for 30 min. with 25 μl ^3 H-AMPA (5 nM final concentration) and the test compound and buffer. Nonspecific binding was determined by incubation with L-glutamic acid (600 μM final concentration). The binding reaction was terminated by adding 5 ml of ice-cold buffer followed by filtration through Whatman GF/C glass fibre filters and 2×5 ml wash with ice-cold buffer. Bound radioactivity was measured by scintillation counting. IC50 was determined by Hill analysis of at least four concentrations of test compound.

For assay [2], the target named is quisqualate receptors (quisqualic acid stimulated 3H-GABA efflux, cultured cortical neurones). Nature of the assay: Antagonism of quisqualic acid stimulated 3H-GABA efflux from cultured cortical neurones. Format: cell-based, mouse. Particulars: Table 1; test not stated. On the procedure: as §1
The antagonism is measured by determining the EC50 value which represents the concentration which reduces the rate of quisqualic acid stimulated ^3 H-GABA efflux by 50%.
Cerebral cortices of 16 day old mouse embryos are chopped in 0.4×0.4 mm cubes. The tissue is dissociated by mild trypsinization (0.1% (wt/vol) trypsin, 37° C., 15 min) and subsequently inoculated into poly-L-lysine-coated 3 cm Petri dishes containing a slightly modified DMEM (24.5 mM KCl, 30 mM glucose) supplemented with p-aminobenzoate (7μM), insulin (100 mU/1) and 10% (vol/vol) horse serum. Cells are maintained in culture for 5-7 days with the addition of the antimitotic agent cytosine arbinoside (40 μM) from day 2 in vitro to prevent glial proliferation. For further details and references see Drejer et al. Exp. Brain Res. 47, 259 (1982)).
Release experiments are performed using the model described by Drejer et al. (Life Sci. 38, 2077 (1986)). Cerebral cortex interneurons cultured in Petri dishes (30 mm) are added 100 μM gamma-vinyl-GABA one hour before the experiment in order to inhibit degradation of GABA in the neurons. 30 min. before the experiment 5 μCi ^3 H-GABA is added to each culture and after this preloading period the cell monolayer at the bottom of the dish is covered with a piece of nylon mesh to protect the cells against mechanical damage and to facilitate dispersion of medium over the cell layer. The preloading medium is removed and the Petri dishes are placed in a superfusion system. This system consists of a peristaltic pump continuously delivering thermostated 37° C. superfusion medium (HEPES buffered saline (HBS): 10 mM HEPES, 135 mM NaCl, 5 mM KCl, […] 1.0 mM CaCl2 and 6 mM D-glucose; pH 7.4) from a reservoir to the top of the slightly tilted Petri dish. The medium is continuously collected from the lower part of the dish and delivered to a fraction collector. Initially, the cells are superfused with HBS for 15 min. (flow rate 2 ml/min.). The cells are stimulated for 30 sec. every 4 min. by changing the superfusion medium from HBS to a corresponding medium containing quisqualate and test compound. The release of ^3 H-GABA in the presence of quisqualate (stimulated release in cpm) are corrected for the mean basal release (Cpm) before and after the stimulation.

Turning to `O=c1[nH]c2c3ccccc3ccc2n(O)c1=O` [Example 1b, 4-Hydroxy-benzo[f]quinoxaline-2,3(1H,4H)-dione], the “IC50 (concentration which causes a displacement of 50% of the specific binding of 3H-AMPA)” value in assay [1] came to 0.61 µg/mL. In assay [2], this compound showed an EC50 of 0.12 µg/mL (≈ 0.526 µM).

For the compound `N#Cc1cc2c([nH]c(=O)c(=O)n2O)c2ccccc12` [Example 2c, 6-Cyano-4-hydroxy-benzo[f]quinoxaline-2,3(1H,4H)-dione], the “IC50 (concentration which causes a displacement of 50% of the specific binding of 3H-AMPA)” value in assay [1] was 0.39 µg/mL. The compound further came in with an EC50 in assay [2] of 0.1 µg/mL (≈ 0.395 µM).

`O=c1[nH]c2c3cccnc3ccc2n(O)c1=O` [Example 4b, 4-Hydroxypyrido[3,2-f]quinoxaline-2,3(1H,4H)-dione]: the “IC50 (concentration which causes a displacement of 50% of the specific binding of 3H-AMPA)” value in assay [1] amounted to 0.23 µg/mL. In addition, in assay [2], the EC50 is 0.16 µg/mL (≈ 0.698 µM).

Turning to `O=c1[nH]c2c3c(ccc2n(O)c1=O)CCCC3` [Example 5b, 7,8,9,10-Tetrahydro-4-hydroxybenzo[f]quinoxaline-2,3(1H,4H)-dione], the “IC50 (concentration which causes a displacement of 50% of the specific binding of 3H-AMPA)” value in assay [1] is 0.49 µg/mL. The same compound registered an EC50 in assay [2] of 0.14 µg/mL (≈ 0.603 µM).

By EC50 is commonly meant the midpoint of the concentration-response curve. The low end stands for greater potency, the high end for weaker potency.
